According to patent publication EP3723745B1, “PHENOXY ACIDS FOR THE TREATMENT OF NEUROMUSCULAR DISORDERS” (NMD Pharma A/S, priority 2017, dated 2019):

Experiments:
CIC-1 channels = target: T1, CIC-1 channels (Rattus norvegicus, UniProt P35524); experiment: Electrophysiological measurement of compound inhibition of CIC-1 in rat muscle (Gm, three micro-electrodes technique); assay type: cell-based; details: reduction of Gm in fibres of whole rat soleus muscles, approx. 30°C; n = number of experiments
T1 construct: from tissue; host or cells: intact soleus muscle of 12-14-week old Wistar rats
T1 sequence (P35524 1-994): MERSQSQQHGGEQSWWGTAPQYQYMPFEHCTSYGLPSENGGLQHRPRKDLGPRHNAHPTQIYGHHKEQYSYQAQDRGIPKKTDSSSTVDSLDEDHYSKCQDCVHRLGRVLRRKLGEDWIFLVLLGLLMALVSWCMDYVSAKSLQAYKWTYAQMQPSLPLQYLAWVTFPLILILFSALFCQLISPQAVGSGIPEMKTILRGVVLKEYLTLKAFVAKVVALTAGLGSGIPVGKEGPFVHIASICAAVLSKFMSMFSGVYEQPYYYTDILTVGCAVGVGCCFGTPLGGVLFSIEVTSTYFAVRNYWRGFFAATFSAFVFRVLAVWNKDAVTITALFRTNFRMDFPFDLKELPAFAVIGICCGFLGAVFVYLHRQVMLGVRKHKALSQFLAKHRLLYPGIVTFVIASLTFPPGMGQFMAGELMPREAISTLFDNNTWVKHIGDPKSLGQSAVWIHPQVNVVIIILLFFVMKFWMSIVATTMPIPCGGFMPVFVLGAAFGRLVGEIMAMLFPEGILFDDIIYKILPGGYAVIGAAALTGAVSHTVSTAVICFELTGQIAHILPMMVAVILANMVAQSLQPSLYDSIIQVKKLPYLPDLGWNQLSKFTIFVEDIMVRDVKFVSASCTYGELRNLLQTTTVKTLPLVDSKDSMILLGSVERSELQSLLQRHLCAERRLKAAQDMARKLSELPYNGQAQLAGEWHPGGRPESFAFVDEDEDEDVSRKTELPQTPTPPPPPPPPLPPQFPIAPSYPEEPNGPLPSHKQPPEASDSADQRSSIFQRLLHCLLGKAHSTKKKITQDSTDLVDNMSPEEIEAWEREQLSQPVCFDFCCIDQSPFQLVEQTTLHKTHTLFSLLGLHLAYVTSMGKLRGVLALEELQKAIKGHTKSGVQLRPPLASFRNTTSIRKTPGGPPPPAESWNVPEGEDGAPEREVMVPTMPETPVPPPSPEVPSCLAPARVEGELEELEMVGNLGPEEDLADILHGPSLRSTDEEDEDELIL
Source text: Table 2: Inhibition of CIC-1 ion channel using compounds of the invention

soleus muscles = experiment: Measurement of force in an in vitro model: isolated rat nerve-muscle preparation with tubocurarine; details: for activation at 50 µM: Rattus norvegicus, 40 min, percentage of initial force restored after 40 mins with 50 µM test compound, tubocurarine (115 nM) for 90 mins, read-out: Point increase
Procedure: Recovery of force is quantified as the percentage of the force prior to tubocurarine that is recovered by the compound.
The current invention relates to compounds that inhibit CIC-1 ion channels and increase muscle excitability and thereby improve muscle function in clinical conditions where muscle activation is failing. Such conditions result in loss of contractile function of skeletal muscle, weakness and excessive fatigue. In this series of experiments the compounds were tested for their ability to restore contractile function of isolated rat muscle when the neuromuscular transmission had been compromised akin to neuromuscular disorders.
Experimentally, soleus muscles from 4-5 wk old rats were isolated with the motor nerve remaining attached. The nerve-muscle preparations were mounted in experimental setups that enabled electrical stimulation of the motor nerve. Stimulation of the motor nerve led to activation of the muscle fibres and ensuing force production that was recorded.
After mounting the nerve-muscle preparation in the experimental setup, the contractile function of the muscle was initially assessed under the control conditions (Figure 2A). […] The experimental condition mimics the failing neuromuscular transmission in a range of neuromuscular disorders. After addition of tubocurarine the contractile force declined over the next 90 mins to 10-50 % of the control force. 50 µM of the test compound was then added and the contractile force recovered despite the continued presence of tubocurarine. To quantify the ability of the compound to restore force the percentage of the initial force that was restored was determined after 40 mins of compound exposure (Figure 2B) and the point increase is reported in Table 3. Table 3: Percentage increase of initial force that was restored using compounds of the invention

human CIC-1 channels = target: T2, human CIC-1 channels (Homo sapiens, UniProt P35523); experiment: Automated patch-clamp on human CIC-1 expressed in CHO cells; assay type: cell-based; details: difference in half activation voltage, compound added intracellularly vs control cell patches; positive shift = CIC-1 inhibition
T2 construct: host or cells: CHO cells constitutively expressing human ClC-1
T2 sequence (P35523 whole entry): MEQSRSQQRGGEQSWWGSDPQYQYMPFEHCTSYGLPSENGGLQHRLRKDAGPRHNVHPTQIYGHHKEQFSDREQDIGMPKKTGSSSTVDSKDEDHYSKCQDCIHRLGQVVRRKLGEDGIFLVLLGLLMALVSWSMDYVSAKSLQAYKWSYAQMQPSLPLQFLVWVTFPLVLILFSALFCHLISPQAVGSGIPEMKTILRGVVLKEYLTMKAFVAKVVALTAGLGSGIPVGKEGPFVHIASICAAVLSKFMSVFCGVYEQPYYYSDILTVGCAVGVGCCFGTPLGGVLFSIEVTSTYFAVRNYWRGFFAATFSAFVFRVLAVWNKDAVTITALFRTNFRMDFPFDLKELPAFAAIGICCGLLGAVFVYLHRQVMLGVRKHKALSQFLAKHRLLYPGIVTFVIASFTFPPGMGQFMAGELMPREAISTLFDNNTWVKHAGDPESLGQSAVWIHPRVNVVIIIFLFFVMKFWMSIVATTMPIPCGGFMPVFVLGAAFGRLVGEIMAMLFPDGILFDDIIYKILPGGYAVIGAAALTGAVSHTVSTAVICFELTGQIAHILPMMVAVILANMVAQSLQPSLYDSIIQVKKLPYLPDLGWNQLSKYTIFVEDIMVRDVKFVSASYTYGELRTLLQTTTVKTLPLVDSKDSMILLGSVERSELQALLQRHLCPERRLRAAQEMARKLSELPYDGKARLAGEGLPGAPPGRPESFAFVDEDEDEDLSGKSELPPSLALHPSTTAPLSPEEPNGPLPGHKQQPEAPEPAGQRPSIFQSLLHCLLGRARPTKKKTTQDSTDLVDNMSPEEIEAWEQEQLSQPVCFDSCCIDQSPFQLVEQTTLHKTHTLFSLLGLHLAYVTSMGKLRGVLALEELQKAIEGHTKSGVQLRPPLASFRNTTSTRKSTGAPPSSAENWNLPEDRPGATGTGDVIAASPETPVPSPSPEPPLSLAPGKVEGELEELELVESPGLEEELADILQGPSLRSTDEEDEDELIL
Procedure: The investigatory goal of these experiments was to evaluate how compounds affect the open probability and current amplitude of human CIC-1 channels expressed in CHO cells. Experiments were performed using an automated patch clamp system that allowed high throughput testing of whole cell patches together with both intracellular and extracellular addition of compound.
Automated whole cell patch clamp experiments were performed with the Qpatch 16 system (Sophion Bioscience, Ballerup, Denmark) at room temperature. Data acquisition and analysis were performed in the Qassay software (ver. 5.6, Odense).
To evoke CIC-1 currents in whole cell patches, the membrane potential was initially stepped from a holding potential of -30 mV to +60 mV for 100 ms and then to various test voltages (sweeps) ranging from +120 mV to -140 mV in steps of 20 mV for 300 ms. To obtain tail currents, the membrane potential was stepped to -100 mV after each test voltage for 300 ms and then relaxed to -30 mV for 2 sec between sweeps (Figure 3). I/V relationships for whole cell instant and steady state current amplitudes were obtained by plotting average current densities at the beginning and at the end of the 300 ms step against the membrane potential (Figure 4).
In order to determine the relative overall open probability (P0), the instantaneous tail currents were normalized to the maximal tail current obtained following the most positive voltage step and plotted against the test voltage. Plots of normalized tail currents from each whole cell patch were then fitted to a Boltzmann function allowing determination of half activation voltages (V1/2, Figure 5).
For automated patch clamp experiments extracellular solutions contained: 2 mM CaCl2, 1 mM MgCl2, 10 mM HEPES, 4 mM KCI, 145 mM NaCl, 10 mM Glucose, pH adjusted to 7.4 with NaOH (2 M). Osmolality adjusted to -320 using sucrose.
Intracellular solutions contained: 80 mM CsF, 60 mM CsCI, 5/1 mM KOH/EGTA, 10 mM HEPES, 10 mM NaCl, pH adjusted to 7.2 with NaOH (2 M). Osmolality adjusted to -320 mOsm using sucrose.
Cells used in patch clamp experiments were Chinese hamster ovary cells (CHO) constitutively expressing human CIC-1 channels. The amino acid sequence encoded by the cDNA used to create this cell line was identical to the translated sequence for GenBank accession number NM_000083.2. Cells were produced by Charles River (Catalogue CT6175, Cleveland OH, USA) in a cryopreserved format. Experiments were performed on the cells directly after thawing (3 × 10^6 cells used in each experiment).
To evaluate the compound effect on CIC-1, when applied directly to the intracellular side of the cell membrane, the half activation voltage, V1/2, was determined from whole cell patches with compound added to the intracellular solution and then compared to V1/2 determined from control cell patches with only vehicle added to the intracellular solution. Additionally, the effect of extracellular added compound was evaluated by determine V1/2 and steady state current amplitudes before and after exchanging the extracellular solution to contain compound.
The difference in half activation voltage of CIC-1 channels, ΔV1/2, was determined as the difference between the cell patches treated intracellularly with compound and control cells patches and is reported in Table 4 below. A positive shift in ΔV1/2 is reflecting CIC-1 channel inhibition by the tested compound. P-values of <0.05 is considered significant. […]

Row | SMILES | EC50 (CIC-1 channels) [µM] | activation at 50 µM (soleus muscles) [%] | ΔV1/2 (human CIC-1 channels) [mV] | average force (AUC) relative to initial force (soleus muscles; 50 µM compound added after 90 min incubation in tubocurarine, 3 muscles (Figure 2))
1 | CC(C)[C@@H](Oc1ccc(Br)cc1F)C(=O)O [Compound A-4, (2R)-2-(4-bromo-2-fluorophenoxy)-3-methylbutanoic acid] | > 80 |  |  | 
2 | [2H]c1cc(Br)cc([2H])c1O[C@@H](C)C(=O)O [Compound A-6, (2S)-2-[4-bromo(2,6-^2H2)phenoxy]propanoic acid] |  | 44 | 13.0 | 
3 | C[C@H](Oc1ccc(Br)cc1I)C(=O)O [Compound A-8, (2S)-2-(4-bromo-2-iodophenoxy)propanoic acid] |  |  | 9.4 | 
4 | O=C(O)[C@@H](Oc1ccc(Br)cc1F)C(F)F [Compound A-9, (2R)-2-(4-bromo-2-fluorophenoxy)-3,3-difluoropropanoic acid] |  |  | 15.2 | 
5 | O=C(O)[C@H](CF)Oc1ccc(Br)cc1F [Compound A-19, (2R)-2-(4-bromo-2-fluorophenoxy)-3-fluoropropanoic acid] |  |  |  | recovered
6 | O=C(O)[C@H](CF)Oc1ccc(Br)cc1 [Compound A-26, (2R)-2-(4-bromophenoxy)-3-fluoropropanoic acid] | 3.8 ± 0.8 | 39 | 19.7 | 
7 | C[C@@H](Oc1ccc(Br)cc1F)C(=O)O [Compound A-28, (2R)-2-(4-bromo-2-fluorophenoxy)propanoi c acid] |  | -8 |  | 
8 | C[C@H](Oc1ccc(Cl)cc1F)C(=O)O [Compound A-38, (2S)-2-(4-chloro-2-fluorophenoxy)propanoi c acid] |  |  | 17.4 | 
9 | C[C@H](Oc1ccc(Br)cc1Br)C(=O)O [Compound A-40, (2S)-2-(2,4-dibromophenoxy)propan oic acid] | 4.2 ± 0.6 | 20 | 5.19 | 
10 | COC(=O)[C@H](C)Oc1ccc(Cl)cc1 [Compound A-54, methyl (2S)-2-(4-chlorophenoxy)propano ate] | 6.8 ± 1.3 |  |  | 
11 | CC[C@H](Oc1ccc(Br)cc1F)C(=O)O [Compound A-58, (2S)-2-(4-bromo-2-fluorophenoxy)butanoic acid] | 6.3 ± 2.4 | 44 | 28.2 | 
12 | C#CC[C@H](Oc1ccc(Br)cc1Br)C(=O)O [Compound A-66, (2S)-2-(2,4-dibromophenoxy)pent-4-ynoic acid] | 7.2 | 51 | 27.4 | 
13 | C#CC[C@H](Oc1ccc(Br)cc1Cl)C(=O)O [Compound A-67, (2S)-2-(4-bromo-2-chlorophenoxy)pent-4-ynoic acid] | 9.4 ± 0.6 | 40 | 37.8 | 
14 | C#CC[C@H](Oc1ccc(Br)cc1F)C(=O)O [Compound A-69, (2S)-2-(4-bromo-2-fluorophenoxy)pent-4-ynoic acid] |  |  | 32.6 | 
15 | O=C(O)[C@@H](Oc1ccc(Br)cc1Cl)C1CCC1 [Compound A-71, (2S)-2-(4-bromo-2-chlorophenoxy)-2-cyclobutylacetic acid] | 10.1 ± 0.2 | 49 |  | 
16 | CC(C)[C@H](Oc1ccc(Br)cc1Cl)C(=O)O [Compound A-73, (2S)-2-(4-bromo-2-chlorophenoxy)-3-methylbutanoic acid] | 7.2 | 51 |  | 
17 | COC[C@H](Oc1ccc(Br)cc1Br)C(=O)O [Compound A-74, (2S)-2-(2,4-dibromophenoxy)-3-methoxypropanoic acid] | 4 ± 0.1 | 42 | 10.4 | 
18 | [2H]CC([2H])[C@H](Oc1ccc(Br)cc1)C(=O)O (stereo partly drawn) [Compound A-76, (2S)-2-(4-bromophenoxy)(3,4-^2H2)butanoic acid] |  | 62 | 26.2 | 
19 | CC[C@H](Oc1ccc(Br)cc1Cl)C(=O)O [Compound A-78, (2S)-2-(4-bromo-2-chlorophenoxy)butanoic acid] | 7.6 ± 1.6 | 38 |  | 
20 | [2H][C@@](CF)(Oc1ccc(Br)cc1)C(=O)O [Compound A-82, (2R)-2-(4-bromophenoxy)-3-fluoro(2-^2H)propanoic acid] |  | 48 | 19.0 | 
21 | O=C(O)[C@H](CCF)Oc1ccc(Br)cc1I [Compound A-83, (2S)-2-(4-bromo-2-iodophenoxy)-4-fluorobutanoic acid] | 8 | 35 |  | 
22 | O=C(O)[C@H](CCF)Oc1ccc(Br)cc1F [Compound A-85, (2S)-2-(4-bromo-2-fluorophenoxy)-4-fluorobutanoic acid] | 10 ± 9.5 | 37 | 12.5 | 
23 | O=C(O)[C@@H](Oc1ccc(Br)cc1F)C1CCC1 [Compound A-86, (2S)-2-(4-bromo-2-fluorophenoxy)-2-cyclobutylacetic acid] | 8.9 ± 3.2 | 45 |  | 
24 | CC(C)[C@H](Oc1ccc(Br)cc1I)C(=O)O [Compound A-88, (2S)-2-(4-bromo-2-iodophenoxy)-3-methylbutanoic acid] | 5.9 ± 1.6 | 55 |  | 
25 | CC[C@H](Oc1ccc(Br)cc1I)C(=O)O [Compound A-90, (2S)-2-(4-bromo-2-iodophenoxy)butanoic acid] | 2.3 | 57 |  | 
